Experimental data reported in patent publication US20010009764A1, “Endothelial-derived toxic factor” (priority 1997, published 2001).

Assays:
[1] = system: primary cerebral cortical cultures; assay: Neurotoxicity (LDH release) of AD microvessel-conditioned medium; type: cell-based, rat
Protocol: Microvessels stored in liquid nitrogen, were quick-thawed at 37° C. and centrifuged at 2,000×g for 10 min. The vessels were washed 3 times with cold Hank's balanced salt-solution and resuspended in serum-free DMEM (2 ml) containing 1% lactalbumin hydrolysate. Microvessels were allowed to “recover” for 1 h, after which they released little LDH. The microvessels were washed by centrifugation and resuspended at a concentration of 100 μg protein per ml in serum-free DMEM containing 1% lactalbumin hydrolysate. The microvessels were then incubated for variable times (4-24 h) in a CO2 incubator, centrifuged, and the conditioned medium was sterile-filtered through a 0.4 μm filter, and used immediately.
Procedures for primary neuronal cultures prepared from fetal rat brains were previously described (Grammas P, Moore P, Weigel P H, “Production of Neurotoxic Factors by Brain Endothelium in AD”, Ann. NY Acad. Sci., 826, 1997, which is hereby incorporated herein by reference.) Neurons are obtained and cultured from 17 day fetal rats. […] The purity of these cultures was determined by antibody reactivity to neuronal-specific enolase.
Cell death by necrosis was determined by release of cytoplasmic lactate dehydrogenase (LDH) (Grammas et al., “Production Of Neurotoxic Factors By Brain Endothelium In AD”, Ann NY Acad Sci, 826:47-55, 1997). […] The A490 of each well was measured to determine LDH activity. […]

neuronal cultures [2] = assay: Neuronal cytotoxicity (LDH release) of conditioned media from rat brain endothelial cells treated with PKC modulators; type: cell-based; conditions: for EDTF^BIM release from endothelial cell cultures: treatment with other PKC inhibitors; for cytotoxic response as % of that elicited by BIM: inhibitor 1 μM on endothelial cells, BIM-mediated cytotoxicity = 100%
Protocol: FIG. 8. Specificity of endothelial derived toxic factor EDTF response to Protein Kinase C inhibition. To confirm that production of EDTF in response to BIM (EDTF^BIM) was indeed related to PKC inhibition, the effect of other PKC inhibitors, calphostin (Cal) and stauroporine (S'sporin) as well as the PKC agonist PMA, were examined. Endothelial cell cultures were incubated in serum-free media (control) containing either BIM (1 μM); BIM and PMA (1 μM each); calphostin (1 μM); or staurosporine (1 μM). The media were collected after 24 hours and added to neuronal cultures and cytotoxicity (LDH release) was measured after 24 hours. Data are expressed as a percentage of the BIM-mediated cytotoxicity (100%).
(§1) Cell death by necrosis was determined by release of cytoplasmic lactate dehydrogenase (LDH) (Grammas et al., “Production Of Neurotoxic Factors By Brain Endothelium In AD”, Ann NY Acad Sci, 826:47-55, 1997). Medium (100 μl) from the neuronal cultures was removed, added to a 96-well plate, the chromogenic substrate added, and the plate was incubated at room temperature for 30 min in darkness. The A490 of each well was measured to determine LDH activity. Data (% cytotoxicity) were expressed as a percentage of total LDH released by treatment with 1% Triton X-100 added to the same well. Vascular LDH release, determined for microvessel-containing inserts placed in wells without neuronal cells, was subtracted from each co-culture point. Each point was performed in duplicate.
For the preparation of endothelial-conditioned media, the media were removed and confluent endothelial cell cultures washed with versene and fresh serum-free DMEM containing (unless otherwise indicated) 1 μM of the PKC inhibitor, bisindolylmaleimide (BIM), was added. The conditioned medium was collected, after 8-24 hrs, and centrifuged at 100,000 g to remove debris and suspended cells, and 5% heat-inactivated horse serum was added prior to application of media to neuronal cultures.
Neurons were obtained and cultured from 15-18 day rat embryos by published methods (Dawson V. L., Dawson, T. M., London E. D., Bredt D. S., Snyder S. H., “Nitric Oxide Mediates Glutamate Neurotoxicity in Primary Cortical Cultures”, Proc. Natl. Acad. Sci. USA, 88:6368-6371, 1991, with our modifications: Grammas P, Moore P, Weigel P H, “Production of Neurotoxic Factors by Brain Endothelium in AD”, Ann. NY Acad. Sci., 826, 1997). Cerebral cortices were isolated, dissociated in Brooks-Logan solution (5% phosphate buffered saline, 0.04 M sucrose, 10 mM HEPES, pH 7.5, 0.03 M glucose) by trituration and seeded in polylysine-coated 24 well plates (15), containing DMEM with 5% heat-inactivated horse serum. After five days of culture, the cells were treated with 10 μg of 5-fluoro-2′-deoxyuridine per well and cultures were maintained for an additional 2 to 3 weeks.

[3] = system: primary cerebral cortical cultures; assay: Neuronal necrosis by candidate molecules at 4 h; type: cell-based, rat; conditions: data not shown
Protocol: as §1

endothelial cultures = type: cell-based, rat
Protocol: as §1
Small arterioles from rat brain were isolated, and endothelial cell cultures initiated, as previously published (Diglio C. A., Grammas P., Giacomelli F. and Wiener J., “Rat Cerebral Microvascular Smooth Muscle Cells in Culture”, J. Cell Physiol., 129:131-141, 1986; Diglio C. A., Liu W., Grammas P., Giacomelli F., and Wiener J., “Isolation and Characterization of Cerebral Resistance Vessel Endothelium in Culture”, Tissue and Cell, 25:833-846, 1993). […] Cells (passages 10-15) were maintained in Dulbecco's modified Eagle's medium (DMEM) and 10% fetal calf serum and subcultured using trypsin-versene (0.025%).

neuronal cultures [4] = type: cell-based, rat
Protocol: as §1
Neurons were obtained and cultured from 15-18 day rat embryos by published methods (Dawson V. L., Dawson, T. M., London E. D., Bredt D. S., Snyder S. H., “Nitric Oxide Mediates Glutamate Neurotoxicity in Primary Cortical Cultures”, Proc. Natl. Acad. Sci. USA, 88:6368-6371, 1991, with our modifications: Grammas P, Moore P, Weigel P H, “Production of Neurotoxic Factors by Brain Endothelium in AD”, Ann. NY Acad. Sci., 826, 1997). […]

`N=C(NCCC[C@H](N)C(=O)O)N[N+](=O)[O-]` [N^GNitro-L-arginine] was tested, and the “% neurotoxicity of conditioned medium” value ([1]; AD microvessels with or without preincubation with 10 μM N^GNitro-L-arginine) was 69±12%.
With `CCCCCCCCCCCCCC(=O)O[C@@H]1[C@@H](C)[C@@]2(O)[C@@H](C=C(CO)C[C@]3(O)C(=O)C(C)=C[C@@H]23)[C@@H]2C(C)(C)[C@]12OC(C)=O` [PMA, phorbol myristate acetate] the “reduction of neuronal cytotoxicity (EDTF^BIM release) compared to BIM alone” value (neuronal cultures [2]; concurrent PMA and BIM, 1 μM each, media collected 24 hours, LDH after 24 hours) was “approximately 60%”.
`C[C@@H]1C[C@@H]([C@H](O)CC2CC(=O)NC(=O)C2)C(=O)[C@@H](C)C1` [cycloheximide] was tested, and the “decrease in neuronal necrosis” value ([1]; AD microvessels incubated with cycloheximide 10 μg/ml) was 60%.
In the case of `CCCCCCCCCCCCC/C=C/[C@@H](O)[C@@H](N)CO` [sphingosine], the “EDTF^BIM release from endothelial cell cultures” value (neuronal cultures [2]) is reported as “elicited EDTF^BIM release”.
For `CN[C@@H]1C[C@H]2O[C@@](C)([C@@H]1OC)n1c3ccccc3c3c4c(c5c6ccccc6n2c5c31)C(=O)NC4` [staurosporine], the “cytotoxic response as % of that elicited by BIM” value (neuronal cultures [2]) was 47%.
With amyloid β the “neuronal necrosis at 4 h” value [3] was “little neuronal necrosis”.
bisindolylmaleimide [BIM] was tested, and the “% cytotoxicity on endothelial cultures” value (endothelial cultures) was 10% and the “% cytotoxicity when added directly to neuronal cultures” value (neuronal cultures [4]) was 16%.
calphostin was tested, and the “cytotoxic response as % of that elicited by BIM” value (neuronal cultures [2]) was 60% and the “EDTF^BIM release from endothelial cell cultures” value (neuronal cultures [2]) was “elicited EDTF^BIM release”.
With tumor necrosis factor α the “neuronal necrosis at 4 h” value [3] was “little neuronal necrosis”.
